From ChEMBL document CHEMBL3044645, “Synthesis and Pesticidal Activities of N-Phosphinoyl Heterocycles” (J Pestic Sci, 1997)

How the values were obtained:
Tetranychus urticae [1] = test: Acaricidal activity against Tetranychus urticae (two-spotted spider mite) in French bean leaf at 200 to 800 ppm after 2 days; assay type: functional
Myzus persicae [2] = test: Aphicidal activity against Myzus persicae (green peach aphid) in cabbage leaf at 200 to 800 ppm after 2 days; assay type: functional
Meloidogyne incognita [3] = test: Nematicidal activity against Meloidogyne incognita (root-knot nematode) at 8 kg/ha after 3 weeks; assay type: functional
Myzus persicae [4] = test: Aphicidal activity against Myzus persicae (green peach aphid) in cabbage leaf at 800 ppm after 2 days; assay type: functional
Tetranychus urticae [5] = test: Acaricidal activity against Tetranychus urticae (two-spotted spider mite) in French bean leaf at 800 ppm after 2 days; assay type: functional
Meloidogyne incognita [6] = test: Nematicidal activity against Meloidogyne incognita (root-knot nematode) at 4 to 8 kg/ha after 3 weeks; assay type: functional
Meloidogyne incognita [7] = test: Nematicidal activity against Meloidogyne incognita (root-knot nematode) at 1 to 4 kg/ha after 3 weeks; assay type: functional
[8] = Dissociation constant, pKa of the compound by titration method; assay type: physicochemical
Myzus persicae [9] = test: Aphicidal activity against Myzus persicae (green peach aphid) in cabbage leaf at <50 ppm after 2 days; assay type: functional
[10] = Acute toxicity in Mus musculus (mouse); assay type: organism-based; settings: in vivo
Tetranychus urticae [11] = test: Acaricidal activity against Tetranychus urticae (two-spotted spider mite) in French bean leaf at <50 ppm after 2 days; assay type: functional
Meloidogyne incognita [12] = test: Nematicidal activity against Meloidogyne incognita (root-knot nematode) at 1 kg/ha after 3 weeks; assay type: functional
Myzus persicae [13] = test: Aphicidal activity against Myzus persicae (green peach aphid) in cabbage leaf at 50 to 200 ppm after 2 days; assay type: functional
Myzus persicae [14] = test: Insecticidal activity against Myzus persicae (green peach aphid); assay type: functional
Acetylcholinesterase = Acetylcholinesterase (Musca domestica, UniProt Q7YWJ9); test: Inhibition of Musca domestica (house fly) head AchE; settings: read-out: I50
Sequence of Acetylcholinesterase (Q7YWJ9 whole entry): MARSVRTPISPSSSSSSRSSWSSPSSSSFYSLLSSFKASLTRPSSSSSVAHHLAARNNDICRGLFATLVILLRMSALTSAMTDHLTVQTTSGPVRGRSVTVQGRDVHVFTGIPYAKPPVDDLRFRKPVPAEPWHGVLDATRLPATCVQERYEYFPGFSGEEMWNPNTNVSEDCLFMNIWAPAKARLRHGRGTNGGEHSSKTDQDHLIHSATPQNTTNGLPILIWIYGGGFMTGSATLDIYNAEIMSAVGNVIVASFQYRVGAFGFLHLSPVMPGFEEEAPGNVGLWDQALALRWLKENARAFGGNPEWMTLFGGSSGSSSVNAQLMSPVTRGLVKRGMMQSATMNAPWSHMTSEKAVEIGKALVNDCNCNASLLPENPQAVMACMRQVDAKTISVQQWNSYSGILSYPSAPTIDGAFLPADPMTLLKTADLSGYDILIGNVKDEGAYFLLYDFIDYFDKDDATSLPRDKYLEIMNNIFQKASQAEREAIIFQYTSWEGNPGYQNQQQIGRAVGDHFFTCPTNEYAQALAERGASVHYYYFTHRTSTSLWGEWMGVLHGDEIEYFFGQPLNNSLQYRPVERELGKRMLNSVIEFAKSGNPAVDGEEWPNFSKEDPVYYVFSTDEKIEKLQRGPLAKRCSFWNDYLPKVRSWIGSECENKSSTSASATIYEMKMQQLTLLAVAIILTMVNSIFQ

Musca domestica = test: Insecticidal activity against adult Musca domestica (house fly) assessed per adult; assay type: functional
Tetranychus urticae [15] = test: Insecticidal activity against Tetranychus urticae (two-spotted spider mite); assay type: functional
Meloidogyne incognita [16] = test: Insecticidal activity against Meloidogyne incognita (root-knot nematode); assay type: functional, organism-based
Tetranychus urticae [17] = test: Acaricidal activity against Tetranychus urticae (two-spotted spider mite) in French bean leaf at 50 to 200 ppm after 2 days; assay type: functional

CCOP(=S)(SC(C)CC)N1CCOC1=O (stereo not given)
Activity (Tetranychus urticae [1]): >90%
Activity (Myzus persicae [2]): >90%
Activity (Meloidogyne incognita [3]): >25%

CCOP(=O)(SC(C)CC)N1C(=O)OCC1C(=O)OC (stereo not given)
Activity (Myzus persicae [4]): <90%
Activity (Tetranychus urticae [1]): >90%
Activity (Meloidogyne incognita [3]): >25%

CCOP(=O)(SC(C)CC)N1CC(=O)SC1=O (stereo not given)
Activity (Myzus persicae [4]): <90%
Activity (Tetranychus urticae [5]): <90%
Activity (Meloidogyne incognita [3]): >25%

CCOP(=O)(SC(C)CC)N1CCCOC1=O (stereo not given)
Activity (Tetranychus urticae [1]): >90%
Activity (Meloidogyne incognita [6]): 0%
Activity (Myzus persicae [2]): >90%

CCC(C)SP(=O)(OC)N1CCOC1=O (stereo not given)
Activity (Tetranychus urticae [1]): >90%
Activity (Myzus persicae [2]): >90%
Activity (Meloidogyne incognita [3]): >25%

CCCCC1COC(=O)N1P(=O)(OCC)SC(C)CC (stereo not given)
Activity (Myzus persicae [4]): <90%
Activity (Tetranychus urticae [1]): >90%
Activity (Meloidogyne incognita [7]): 0%

CCOP(=O)(SC(C)CC)N1OCCC1=O (stereo not given)
Activity (Tetranychus urticae [1]): >90%
Activity (Myzus persicae [2]): >90%
pKa [8]: 10.5
Activity (Meloidogyne incognita [3]): >25%

CCCOP(=O)(SC(C)CC)N1CCOC1=O (stereo not given)
Activity (Tetranychus urticae [1]): >90%
Activity (Meloidogyne incognita [6]): 0%
Activity (Myzus persicae [2]): >90%

CCOP(=O)(SC(C)CC)N1CCSC1=O (stereo not given) [FOSTHIAZATE]
Activity (Myzus persicae [9]): >90%
LD50 [10]: 127 mg/kg
Activity (Tetranychus urticae [11]): >90%
Activity (Meloidogyne incognita [12]): 0%
pKa [8]: 11.6

CCOP(=O)(SC(C)CC)N1CC(S(C)(=O)=O)OC1=O (stereo not given)
Activity (Tetranychus urticae [1]): >90%
Activity (Meloidogyne incognita [6]): 0%
Activity (Myzus persicae [2]): >90%

CCOP(=O)(SC(C)CC)N1CC(C)OC1=O (stereo not given)
Activity (Myzus persicae [9]): >90%
Activity (Tetranychus urticae [11]): >90%
Activity (Meloidogyne incognita [12]): 0%

CCOP(=O)(SC(C)CC)N1C(=O)CCC1=O (stereo not given)
Activity (Myzus persicae [4]): <90%
Activity (Tetranychus urticae [5]): <90%
pKa [8]: 9.6
Activity (Meloidogyne incognita [3]): >25%

CCC(C)SP(=O)(OCCF)N1CCOC1=O (stereo not given)
Activity (Tetranychus urticae [5]): <90%
Activity (Meloidogyne incognita [6]): 0%
Activity (Myzus persicae [2]): >90%

CCOP(=O)(SC(C)CC)N1CCCC1=O (stereo not given)
Activity (Tetranychus urticae [1]): >90%
Activity (Meloidogyne incognita [12]): 0%
Activity (Myzus persicae [13]): >90%

CCCSP(=O)(NC)N1CCOC1=O (stereo not given)
Activity (Tetranychus urticae [1]): >90%
Activity (Myzus persicae [2]): >90%
Activity (Meloidogyne incognita [3]): >25%

CCOP(=O)(SC(C)CC)N1CCSC1=O (stereo in doubt; (-)-8) [FOSTHIAZATE]
LC50 (Myzus persicae [14]): >13.2 ppm
IC50 (Acetylcholinesterase): > 1000 µM
Activity (Musca domestica): 0.108 µg
LC50 (Tetranychus urticae [15]): 35.7 ppm
EC50 (Meloidogyne incognita [16]): 0.079 ppm

CCOP(=O)(OCC)N1CCOC1=O
Activity (Myzus persicae [4]): <90%
Activity (Tetranychus urticae [5]): <90%
Activity (Meloidogyne incognita [3]): >25%

CCOP(=O)(SC(C)CC)N1C(=O)OCC1CC (stereo not given)
Activity (Myzus persicae [9]): >90%
Activity (Tetranychus urticae [11]): >90%
Activity (Meloidogyne incognita [12]): 0%

CCOP(=O)(SC(C)CC)N1CCOC1=O (stereo not given)
Activity (Myzus persicae [9]): >90%
LD50 [10]: < 30 mg/kg
Activity (Tetranychus urticae [11]): >90%
Activity (Meloidogyne incognita [12]): 0%
pKa [8]: 11.8

CCOP(=O)(SC(C)CC)N1CC(C(C)(C)C)OC1=O (stereo not given)
Activity (Meloidogyne incognita [6]): 0%
Activity (Myzus persicae [2]): >90%
Activity (Tetranychus urticae [17]): >90%

CCOP(=O)(SCC(C)C)N1CCOC1=O (stereo not given)
Activity (Myzus persicae [9]): >90%
Activity (Tetranychus urticae [11]): >90%
Activity (Meloidogyne incognita [7]): 0%

CCOP(=O)(SC(C)CC)N1C(=O)OCC1C (stereo not given)
Activity (Myzus persicae [9]): >90%
Activity (Tetranychus urticae [11]): >90%
Activity (Meloidogyne incognita [12]): 0%

CCOP(=O)(SC(C)CC)N1C(=O)OCC1OC (stereo not given)
Activity (Meloidogyne incognita [12]): 0%
Activity (Tetranychus urticae [17]): >90%
Activity (Myzus persicae [13]): >90%

CCOP(=O)(SC(C)CC)N1CCSC1=S (stereo not given)
Activity (Myzus persicae [2]): >90%
Activity (Meloidogyne incognita [3]): >25%
Activity (Tetranychus urticae [17]): >90%

CCOP(=O)(SC(C)CC)n1ccoc1=O (stereo not given)
Activity (Myzus persicae [4]): <90%
Activity (Tetranychus urticae [5]): <90%
Activity (Meloidogyne incognita [3]): >25%

CCOP(=O)(SC(C)CC)N1C(=O)OC(C)C1C (stereo not given)
Activity (Tetranychus urticae [11]): >90%
Activity (Meloidogyne incognita [12]): 0%

CCOP(=O)(SC(C)CC)N1CCSC1=O (racemic) [FOSTHIAZATE]
LC50 (Myzus persicae [14]): >4.06 ppm
Activity (Musca domestica): 18 µg
LC50 (Tetranychus urticae [15]): >22.4 ppm
EC50 (Meloidogyne incognita [16]): 29.6 ppm

CCOP(=O)(SC(C)CC)N1CC(C#N)OC1=O (stereo not given)
Activity (Myzus persicae [4]): <90%
Activity (Tetranychus urticae [1]): >90%
Activity (Meloidogyne incognita [6]): 0%

CCOP(=O)(SC(C)CC)N1CCSC1=C(C#N)C#N (stereo not given)
Activity (Tetranychus urticae [5]): <90%
Activity (Myzus persicae [2]): >90%
Activity (Meloidogyne incognita [3]): >25%

CCCSP(=O)(SC)N1CCOC1=O (stereo not given)
Activity (Myzus persicae [4]): <90%
Activity (Tetranychus urticae [5]): <90%
Activity (Meloidogyne incognita [3]): >25%

CCOP(=O)(SC(C)C)N1CCOC1=O (stereo not given)
Activity (Tetranychus urticae [1]): >90%
Activity (Meloidogyne incognita [6]): 0%
Activity (Myzus persicae [2]): >90%

CCOP(=O)(SC(C)CC)N1CCSC1=O (single isomer, unassigned; (+)) [FOSTHIAZATE]
LC50 (Myzus persicae [14]): >53.7 ppm
Activity (Musca domestica): 1.945 µg
LC50 (Tetranychus urticae [15]): >800 ppm
EC50 (Meloidogyne incognita [16]): 2.339 ppm
